Measurements: patent publication US10537608B2, “Adiponectin peptidomimetics for treating ocular disorders” (Allysta Pharmaceuticals, Inc., priority 2015, dated 2020)
Primed or numbered codes have the meaning given here. Where no end group is shown, it is not given here. [ ]: non-standard residue; d: D form. Dab′ = 2,3-diamino butyric acid; Nva = CCC[C@H](N)C(=O)O

Tests used:
Assay type in all cases: in vivo, C57BL/6 mice
[1] = test system: Experimental dry eye (EDE) mice; experiment: Corneal fluorescein staining in experimental dry eye mice (Example 4); conditions: single treatment, topical; D5 and D10
Description: Experimental dry eye (EDE) was induced in 8-week old female C57BL/6 mice by subcutaneous injection of 0.5 mg/0.2 mL scopolamine hydrobromide (Sigma-Aldrich, St. Louis, Mo.) three times a day (9 AM 0.3 mL, 1:30 PM 0.3 mL, and 6:00 PM 0.3 mL). The mice were also exposed to an air draft and 30% ambient humidity. Five experimental groups used in this study included: (1) untreated control mice (UT; no dry eye treatment and no topical treatment); (2) EDE control mice received a balanced salt solution (BSS); (3) EDE mice received ADP 355 0.1% (single chain adiponectin peptidomimetic (ADP 355) in BSS); (4) EDE mice received Lifitegrast 5%; and (5) EDE mice received 0.1% peptide adiponectin peptidomimetic (ADP 355) in BSS+Lifitegrast 5%. […] Mice were evaluated at baseline, day 5 and day 10 after the treatment initiation.
Experiment 2—Corneal staining: The purpose of the corneal staining assay was to evaluate damage to the cornea epithelia in the murine EDE subject either as a consequence of inducing dry eye or due to treatment with 0.1% ADP 355 or with Lifitegrast 5% alone or with the combination of 0.1% ADP 355+Lifitegrast 5%. […] Corneal staining was assessed in four quadrants using a 4-point scale with 16 being the maximum score.
Briefly, fluorescein dye (1 μï) was instilled into the eye and then the eye was washed with saline. […] The average score from the five regions was recorded. […]

[2] = test system: Experimental dry eye (EDE) mice; experiment: Corneal fluorescein staining in experimental dry eye mice (Example 3); conditions: 0.01% in BSS; for corneal staining (corneal irregularity) compared to untreated EDE mice: topical 3 times a day, score 0-4, day 5 and day 10, p-value<0.05 vs. EDE; for corneal surfaces compared to untreated normal mice (UT) and positive control gAdipo-treated mice: topical, EDE mice
Description: (§1) Experimental dry eye (EDE) was induced in 8-week old female C57BL/6 mice by subcutaneous injection of 0.5 mg/0.2 mL scopolamine hydrobromide (Sigma-Aldrich, St. Louis, Mo.) three times a day (9 AM, 1:30 PM and 6 PM). A dose of 0.3 mL scopolamine hydrobromide was administered at each injection. The mice were also exposed to an air draft and 30% ambient humidity. 6 experimental groups used in this study included: (1) untreated control mice (UT; no dry eye treatment and no topical treatment); (2) untreated EDE control mice (EDE; received no topical administration); (3) EDE control mice received a balanced salt solution (BSS); (4) EDE mice received 0.01% single chain adiponectin peptidomimetic (ADP355) in BSS; (5) EDE mice receiving 0.01% peptide dimer adiponectin peptidomimetic (ADP399) in BSS; and (6) EDE mice receiving 0.01% recombinant globular adiponectin (gAdipo) in BSS. Each group included 5 mice. EDE mice treated with BSS received topical bilateral administration of 2 μï/eye, 3 times a day. EDE mice treated with ADP355 received topical bilateral administration of 2 μï/eye, 3 times a day. EDE mice treated with ADP-399 received topical bilateral administration of 2 μï/eye, 3 times a day. The gAdipo treated mice served as a positive treatment control. Mice were evaluated at baseline, day 5 and day 10 after the treatment initiation. In some experiments, ADP355, ADP-399 and gAdipo were resuspended in 0.01% BSA.
The severity of corneal epithelial damage was evaluated by corneal fluorescein staining. Briefly, 1% fluorescein dye (1 μï) was instilled into the eye and then the eye was washed with saline. 10 minutes after application of the dye, the eye was photographed with a slip lamp microscope using a cobalt blue light. The stained area was graded using a scoring system by two blinded observers. […] The average score from the five regions was recorded. […] In addition, the adiponectin peptidomimetic-treated mice (ADP355 and ADP-399) had corneal surfaces that were similar to those of untreated normal mice (UT) and positive control globular adiponectin-treated mice (gAdipo). The corneal surface scores in all groups at day 10 were similar to those at day 5 after treatment initiation.

[3] = test system: Experimental dry eye (EDE) mice; experiment: Tear volume by phenol red thread tear test in experimental dry eye mice (Example 3); conditions: 0.01% in BSS; for tear production, as measured by tear volume, compared to untreated or BSS treated EDE mice: topical 2 μl/eye 3 times a day, day 5 and day 10, p-value<0.05 vs. EDE; for difference in tear volume among those treated with ADP355, ADP399 and globular adiponectin: topical, EDE mice
Description: as §1
Tear volume was measured using a phenol red thread tear test. Briefly, a cotton thread treated with phenol red at its tip (Zone-Quick; Oasis, Glendora, Calif.) was held with jeweler's forceps and placed in the tear meniscus of the lateral canthus for 20 sees to contact tear fluid. Using a microscope, the length of the red portion (wet portion) of the thread was measured in millimeters. A standard curve was derived to convert the distance measurement into tear volume.

Compound | corneal disruptions resulting from induced dry eye (corneal staining grade) vs untreated eyes (BSS) [1] | corneal staining (corneal irregularity) compared to untreated EDE mice [2] | corneal surfaces compared to untreated normal mice (UT) and positive control gAdipo-treated mice [2] | tear production, as measured by tear volume, compared to untreated or BSS treated EDE mice [3] | difference in tear volume among those treated with ADP355, ADP399 and globular adiponectin [3]
CS(=O)(=O)c1cccc(C[C@H](NC(=O)c2c(Cl)cc3c(c2Cl)CCN(C(=O)c2ccc4ccoc4c2)C3)C(=O)O)c1 [Lifitegrast, reference compound] | improved corneal disruptions |  |  |  | 
(DAsn-Ile-Pro-Nva-Leu-Tyr-DSer-Phe-Ala-DSer-His-Pro)2-Dab-NH2 ([dN]IP[Nva]LY[dS]FA[dS]HP[Dab′]-NH2; also: branched dimer: two chains joined via C-terminal Dab) [ADP399, linear branched dimer of ADP355] |  | less corneal staining | similar | higher | no significant difference
DAsn-Ile-Pro-Nva-Leu-Tyr-DSer-Phe-Ala-DSer-NH2 ([dN]IP[Nva]LY[dS]FA[dS]-NH2; N-terminus assumed; SMILES CCC[C@H](NC(=O)[C@@H]1CCCN1C(=O)[C@@H](NC(=O)[C@H](N)CC(N)=O)[C@@H](C)CC)C(=O)N[C@@H](CC(C)C)C(=O)N[C@@H](Cc1ccc(O)cc1)C(=O)N[C@H](CO)C(=O)N[C@@H](Cc1ccccc1)C(=O)N[C@@H](C)C(=O)N[C@H](CO)C(N)=O) [ADP355, single chain adiponectin peptidomimetic] | improved corneal disruptions | less corneal staining | similar | higher | no significant difference
